pIC50: −log10 of the molar value. Active and inactive are the calls of the source. The rule behind the calls is not given here. Peptide text beside a SMILES is read from it.
Tests used:
[1] = biological target: T1, Glucagon receptor (Homo sapiens, UniProt P47871); assay: Antagonist activity at human GCGR expressed in HEK293 cells assessed as inhibition of glucogon-induced cAMP production; format: functional, cell-based
[2] = biological target: T1, Glucagon receptor; assay: Antagonist activity at human GCGR expressed in HEK293 cells assessed as inhibition of glucogon-induced cAMP production relative to control; format: functional, cell-based; conditions: filed as antagonist, concentration not given here
[3] = biological target: T2, Gastric inhibitory polypeptide receptor (Homo sapiens, UniProt P48546); assay: Antagonist activity at human GIPR expressed in HEK293 cells assessed as inhibition of GIP-induced cAMP production; format: functional, cell-based
T2 sequence (P48546 whole entry): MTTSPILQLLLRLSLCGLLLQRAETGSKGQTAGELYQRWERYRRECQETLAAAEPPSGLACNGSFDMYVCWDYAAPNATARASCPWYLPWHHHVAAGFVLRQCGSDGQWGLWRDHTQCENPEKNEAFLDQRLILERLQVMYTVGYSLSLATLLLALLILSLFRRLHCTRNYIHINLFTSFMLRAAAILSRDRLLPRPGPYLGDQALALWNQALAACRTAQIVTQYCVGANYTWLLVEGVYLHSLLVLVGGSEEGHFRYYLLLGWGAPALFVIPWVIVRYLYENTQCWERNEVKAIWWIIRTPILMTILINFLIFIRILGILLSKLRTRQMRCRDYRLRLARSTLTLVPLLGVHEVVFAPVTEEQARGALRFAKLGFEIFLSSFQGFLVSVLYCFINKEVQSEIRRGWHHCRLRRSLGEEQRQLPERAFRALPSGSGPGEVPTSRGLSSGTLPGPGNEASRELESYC

[4] = biological target: T3, Gastric inhibitory polypeptide receptor (Homo sapiens) (UniProt P48546); assay: Antagonist activity at human GIPR expressed in HEK293 cells assessed as inhibition of GIP-induced cAMP production relative to control; format: functional, cell-based; conditions: concentration not given here
T3 sequence (whole entry): T2 sequence (P48546 whole entry)

[5] = biological target: Glucagon-like peptide 1 receptor (Homo sapiens, UniProt P43220); assay: Antagonist activity at human GLP-1R expressed in HEK293 cells assessed as inhibition of GLP1-induced cAMP production; format: functional, cell-based
Chain of Glucagon-like peptide 1 receptor (Homo sapiens, UniProt P43220) (P43220 whole entry): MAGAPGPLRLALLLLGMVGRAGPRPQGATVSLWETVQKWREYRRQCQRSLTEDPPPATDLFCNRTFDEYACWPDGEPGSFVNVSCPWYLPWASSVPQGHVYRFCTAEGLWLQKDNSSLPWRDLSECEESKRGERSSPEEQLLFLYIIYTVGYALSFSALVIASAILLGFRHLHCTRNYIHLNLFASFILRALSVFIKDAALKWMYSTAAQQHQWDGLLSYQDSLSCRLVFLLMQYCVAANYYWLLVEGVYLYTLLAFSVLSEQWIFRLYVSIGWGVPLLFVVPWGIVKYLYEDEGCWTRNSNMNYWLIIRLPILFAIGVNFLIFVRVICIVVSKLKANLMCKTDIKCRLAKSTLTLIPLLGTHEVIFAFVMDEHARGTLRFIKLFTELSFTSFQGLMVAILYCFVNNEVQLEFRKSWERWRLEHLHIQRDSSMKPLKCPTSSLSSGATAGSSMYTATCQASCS

[6] = biological target: Glucagon receptor (Mus musculus) (UniProt Q61606); assay: Antagonist activity at mouse GCGR expressed in CHO-K1 cells assessed as inhibition of glucogon-induced cAMP production relative to control; format: functional, cell-based; conditions: filed as antagonist, concentration not given here
Chain of Glucagon receptor (Mus musculus) (Q61606 whole entry): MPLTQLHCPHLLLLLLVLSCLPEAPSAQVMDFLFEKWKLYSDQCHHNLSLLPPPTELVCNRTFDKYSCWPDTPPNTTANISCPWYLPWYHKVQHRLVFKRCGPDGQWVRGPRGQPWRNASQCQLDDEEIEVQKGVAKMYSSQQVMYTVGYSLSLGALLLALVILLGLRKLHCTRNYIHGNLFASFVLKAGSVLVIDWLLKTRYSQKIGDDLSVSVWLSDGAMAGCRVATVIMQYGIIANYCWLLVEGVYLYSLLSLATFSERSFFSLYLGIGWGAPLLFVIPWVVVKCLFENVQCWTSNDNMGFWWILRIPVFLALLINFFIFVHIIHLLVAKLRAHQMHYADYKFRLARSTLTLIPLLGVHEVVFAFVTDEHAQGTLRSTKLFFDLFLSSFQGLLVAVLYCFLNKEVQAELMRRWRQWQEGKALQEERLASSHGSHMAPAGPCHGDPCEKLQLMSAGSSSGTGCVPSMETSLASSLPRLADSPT

[7] = biological target: Glucagon receptor (Mus musculus, UniProt Q61606); assay: Antagonist activity at mouse GCGR expressed in CHO-K1 cells assessed as inhibition of glucogon-induced cAMP production; format: functional, cell-based
Chain of Glucagon receptor (Mus musculus, UniProt Q61606) (Q61606 whole entry): as above

[8] = biological target: T4, Gastric inhibitory polypeptide receptor (Mus musculus, UniProt Q0P543); assay: Antagonist activity at mouse GIPR expressed in CHO-K1 cells assessed as inhibition of GIP-induced cAMP production; format: cell-based
T4 sequence (Q0P543 whole entry): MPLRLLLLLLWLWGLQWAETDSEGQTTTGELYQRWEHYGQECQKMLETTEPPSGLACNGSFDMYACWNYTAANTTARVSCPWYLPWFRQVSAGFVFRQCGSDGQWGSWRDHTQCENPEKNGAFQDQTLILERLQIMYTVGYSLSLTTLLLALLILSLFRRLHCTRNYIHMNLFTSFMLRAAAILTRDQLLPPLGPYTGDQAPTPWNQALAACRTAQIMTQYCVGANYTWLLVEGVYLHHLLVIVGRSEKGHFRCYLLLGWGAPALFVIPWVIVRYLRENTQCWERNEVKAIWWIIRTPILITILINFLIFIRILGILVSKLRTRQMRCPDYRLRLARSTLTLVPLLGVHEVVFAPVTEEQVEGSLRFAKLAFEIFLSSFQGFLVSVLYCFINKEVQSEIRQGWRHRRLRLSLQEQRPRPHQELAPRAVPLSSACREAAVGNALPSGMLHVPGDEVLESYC

[9] = biological target: T5, Gastric inhibitory polypeptide receptor (Mus musculus) (UniProt Q0P543); assay: Antagonist activity at mouse GIPR expressed in CHO-K1 cells assessed as inhibition of GIP-induced cAMP production relative to control; format: cell-based; conditions: concentration not given here
T5 sequence (whole entry): T4 sequence (Q0P543 whole entry)

[10] = biological target: T6, Glucagon-like peptide 1 receptor (Mus musculus, UniProt O35659); assay: Antagonist activity at mouse GLP1R expressed in CHO-K1 cells assessed as inhibition of GLP1-induced cAMP production; format: functional, cell-based
T6 sequence (O35659 whole entry): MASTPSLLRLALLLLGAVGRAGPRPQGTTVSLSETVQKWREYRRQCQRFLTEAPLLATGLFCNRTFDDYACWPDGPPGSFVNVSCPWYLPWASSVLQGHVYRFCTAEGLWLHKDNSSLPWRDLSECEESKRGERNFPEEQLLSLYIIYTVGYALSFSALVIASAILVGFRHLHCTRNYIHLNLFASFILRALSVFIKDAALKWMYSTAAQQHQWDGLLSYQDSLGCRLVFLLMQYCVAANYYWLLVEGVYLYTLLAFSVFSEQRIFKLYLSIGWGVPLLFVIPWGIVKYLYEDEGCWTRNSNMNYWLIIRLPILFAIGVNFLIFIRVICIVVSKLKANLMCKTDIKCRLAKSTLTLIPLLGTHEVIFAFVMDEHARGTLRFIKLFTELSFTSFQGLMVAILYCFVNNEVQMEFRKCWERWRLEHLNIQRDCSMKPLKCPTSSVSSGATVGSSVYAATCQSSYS

[11] = biological target: T7, Glucagon-like peptide 1 receptor (Mus musculus) (UniProt O35659); assay: Antagonist activity at mouse GLP1R expressed in CHO-K1 cells assessed as inhibition of GLP1-induced cAMP production relative to control; format: functional, cell-based; conditions: concentration not given here
T7 sequence (whole entry): T6 sequence (O35659 whole entry)

[12] = tested on: Mus musculus; assay: Inhibition of IUB288-induced glucose elevation in C57BL/6 mouse at 1500 nmol/kg, sc pretreated for 15 mins followed by IUB288 stimulation and measured upto 120 mins; format: functional, organism-based; conditions: time 135.0 min
[13] = Toxicity in C57BL/6 mouse assessed as adverse local and systemic responses at 1500 nmol/kg, sc; conditions: in vivo
[14] = Half life in C57BL/6 mouse at 1500 nmol/kg, sc measured upto 240 mins by LC-MS analysis; format: ADME, organism-based; conditions: in vivo
[15] = Cmax in C57BL/6 mouse at 1500 nmol/kg, sc measured upto 240 mins by LC-MS analysis; format: ADME, organism-based; set-up: route subcutaneous, dose 1500 nmol/kg, time <=240; conditions: in vivo
[16] = AUC in C57BL/6 mouse at 1500 nmol/kg, sc measured upto 240 mins by LC-MS analysis; format: ADME, organism-based; set-up: route subcutaneous, dose 1500 nmol/kg, time <=240; conditions: in vivo
[17] = Aqueous solubility of the compound at pH 8 by LC-MS analysis; format: physicochemical; conditions: buffer
[18] = Chemical stability of compound in PBS buffer incubated for 5 to 7 days by LC-MS analysis; format: physicochemical; conditions: time 5-7 day
[19] = biological target: T1, Glucagon receptor; assay: Partial antagonist activity at human GCGR expressed in HEK293 cells assessed as inhibition of glucogon-induced cAMP production; format: functional, cell-based; conditions: filed as antagonist
[20] = biological target: Glucagon receptor (Rattus norvegicus) (UniProt P30082); assay: Displacement of 125I-glucagon from GCGR of rat liver membrane; format: cell membranes; conditions: filed as antagonist
Chain of Glucagon receptor (Rattus norvegicus) (P30082 whole entry): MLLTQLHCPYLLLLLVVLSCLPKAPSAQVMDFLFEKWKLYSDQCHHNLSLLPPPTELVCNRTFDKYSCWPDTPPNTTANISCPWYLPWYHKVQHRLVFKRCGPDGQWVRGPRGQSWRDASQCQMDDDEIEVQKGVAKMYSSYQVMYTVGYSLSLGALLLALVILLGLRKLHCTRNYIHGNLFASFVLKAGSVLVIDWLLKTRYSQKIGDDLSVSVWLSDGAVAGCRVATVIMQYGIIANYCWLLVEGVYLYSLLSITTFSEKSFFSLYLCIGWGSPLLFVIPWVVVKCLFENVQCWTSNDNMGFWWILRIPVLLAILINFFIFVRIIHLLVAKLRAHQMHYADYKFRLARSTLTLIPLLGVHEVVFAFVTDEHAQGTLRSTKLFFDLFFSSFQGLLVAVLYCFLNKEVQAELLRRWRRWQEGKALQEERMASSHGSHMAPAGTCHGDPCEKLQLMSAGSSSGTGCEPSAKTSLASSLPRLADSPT

[21] = biological target: T1, Glucagon receptor; assay: Antagonist activity at human GCGR expressed in HEK293 cells assessed as inhibition of glucogon-induced cAMP production by schild plot analysis; format: functional, cell-based; conditions: dose 0.1-1.6 µM
[22] = tested on: Mus musculus; assay: Inhibition of IUB288-induced glucose elevation in C57BL/6 mouse at 1500 nmol/kg, sc pretreated for 4 to 8 hrs followed by IUB288 stimulation and measured upto 4 hrs; format: functional, organism-based; conditions: time 8-12 hrs
[23] = tested on: Mus musculus; assay: Inhibition of IUB288-induced glucose elevation in C57BL/6 mouse at 1500 nmol/kg, sc pretreated for 24 hrs followed by IUB288 stimulation and measured upto 4 hrs; format: functional, organism-based; conditions: time 28.0 hrs
[24] = Half life in C57BL/6 mouse at 1500 nmol/kg, sc measured upto 48 hrs by LC-MS analysis; format: ADME, organism-based; conditions: in vivo
[25] = Cmax in C57BL/6 mouse at 1500 nmol/kg, sc measured upto 48 hrs by LC-MS analysis; format: ADME, organism-based; set-up: route subcutaneous, dose 1500 nmol/kg, time <=48; conditions: in vivo
[26] = AUC in C57BL/6 mouse at 1500 nmol/kg, sc measured upto 48 hrs by LC-MS analysis; format: ADME, organism-based; set-up: route subcutaneous, dose 1500 nmol/kg, time <=48; conditions: in vivo

T1 sequence (P47871 whole entry): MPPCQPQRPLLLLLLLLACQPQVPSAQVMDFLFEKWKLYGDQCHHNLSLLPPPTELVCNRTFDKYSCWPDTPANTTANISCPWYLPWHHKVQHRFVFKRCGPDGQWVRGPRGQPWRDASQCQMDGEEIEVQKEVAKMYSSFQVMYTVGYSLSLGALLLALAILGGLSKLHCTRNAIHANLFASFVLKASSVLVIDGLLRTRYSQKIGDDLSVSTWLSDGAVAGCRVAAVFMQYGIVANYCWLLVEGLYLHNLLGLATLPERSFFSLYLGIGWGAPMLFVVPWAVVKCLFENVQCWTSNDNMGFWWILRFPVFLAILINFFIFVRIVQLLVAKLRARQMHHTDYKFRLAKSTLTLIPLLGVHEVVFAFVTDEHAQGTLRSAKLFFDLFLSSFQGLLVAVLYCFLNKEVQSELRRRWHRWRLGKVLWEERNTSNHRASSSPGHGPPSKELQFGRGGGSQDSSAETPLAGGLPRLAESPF

SMILES	pIC50 [1]	inhibition [2] [%]	pIC50 [3]	pIC50 [5]	inhibition [6] [%]	pIC50 [7]	pIC50 [8]	pIC50 [10]	Activity [13]	Stabilty [18]	further results
CSCC[C@H](NC(=O)[C@H](CC(C)C)NC(=O)[C@H](Cc1c[nH]c2ccccc12)NC(=O)[C@H](CCC(N)=O)NC(=O)[C@@H](NC(=O)[C@H](Cc1ccccc1)NC(=O)[C@H](CC(=O)O)NC(=O)[C@H](CCC(N)=O)NC(=O)[C@H](C)NC(=O)[C@H](CCCNC(=N)N)NC(=O)[C@H](CCCNC(=N)N)NC(=O)[C@H](CO)NC(=O)[C@H](CC(=O)O)NC(=O)[C@H](CC(C)C)NC(=O)[C@H](Cc1ccc(O)cc1)NC(=O)[C@H](CCCCN)NC(=O)[C@H](CO)NC(=O)[C@H](Cc1ccc(O)cc1)NC(=O)[C@H](CC(=O)O)NC(=O)[C@H](CO)NC(=O)[C@@H](NC(=O)[C@@H](O)Cc1ccccc1)[C@@H](C)O)C(C)C)C(=O)N[C@@H](CC(=O)O)C(=O)N[C@H](C(N)=O)[C@@H](C)O	7.92	99	< 6.00	< 6.00	92	7.64	< 6.00	< 6.00	Non-Toxic	Stable	inhibition [4]: 20%; inhibition [9]: 10%; inhibition [11]: 1%; inhibition [12]: Active; half-life [14]: 0.512 h; Cmax [15]: 261 nM; AUC at 4 h [16]: 0.209 µM·h; solubility [17]: > 500 µM
CSCC[C@H](NC(=O)[C@H](CC(C)C)NC(=O)[C@H](Cc1c[nH]c2ccccc12)NC(=O)[C@H](CCC(N)=O)NC(=O)[C@@H](NC(=O)[C@H](Cc1ccccc1)NC(=O)[C@H](CC(=O)O)NC(=O)[C@H](CCC(N)=O)NC(=O)[C@H](C)NC(=O)[C@H](CCCN=C(N)N)NC(=O)[C@H](CCCN=C(N)N)NC(=O)[C@H](CO)NC(=O)[C@H](CC(=O)O)NC(=O)[C@H](CC(C)C)NC(=O)[C@H](Cc1ccc(O)cc1)NC(=O)[C@H](CCCCN)NC(=O)[C@H](CO)NC(=O)[C@H](Cc1ccc(O)cc1)NC(=O)[C@H](CCC(=O)O)NC(=O)[C@H](CO)NC(=O)[C@@H](NC(=O)[C@H](Cc1ccccc1)NC(=O)[C@@H](NC(=O)CNC(=O)[C@H](CCC(N)=O)NC(=O)[C@@H](N)CO)[C@@H](C)O)[C@@H](C)O)C(C)C)C(=O)N[C@@H](CC(N)=O)C(=O)N[C@H](C(N)=O)[C@@H](C)O	–	–	–	–	–	–	–	–	–	–	Activity [19]: Active; Activity [20]: 41%; Activity [21]: inactive
CCCCCCCCCCCCCCCC(=O)N[C@@H](CCC(=O)N[C@@H](CCC(=O)NCCCC[C@H](NC(=O)[C@H](CC(=O)O)NC(=O)[C@H](CO)NC(=O)[C@@H](NC(=O)[C@@H](O)Cc1ccccc1)[C@@H](C)O)C(=O)N[C@@H](CO)C(=O)N[C@@H](CCCCN)C(=O)N[C@@H](Cc1ccc(O)cc1)C(=O)N[C@@H](CC(C)C)C(=O)N[C@@H](CC(=O)O)C(=O)N[C@@H](CO)C(=O)N[C@@H](CCCNC(=N)N)C(=O)N[C@@H](CCCNC(=N)N)C(=O)N[C@@H](C)C(=O)N[C@@H](CCC(N)=O)C(=O)N[C@@H](CC(=O)O)C(=O)N[C@@H](Cc1ccccc1)C(=O)N[C@H](C(=O)N[C@@H](CCC(N)=O)C(=O)N[C@@H](Cc1c[nH]c2ccccc12)C(=O)N[C@@H](CC(C)C)C(=O)N[C@@H](CCSC)C(=O)N[C@@H](CC(=O)O)C(=O)N[C@H](C(N)=O)[C@@H](C)O)C(C)C)C(=O)O)C(=O)O (HELM PEPTIDE1{[O=C([C@@H](O)Cc1ccccc1)[*:2]].T.S.D.K.S.K.Y.L.D.S.R.R.A.Q.D.F.V.Q.W.L.M.D.T.[am]}|PEPTIDE2{[CCCCCCCCCCCCCCCC(=O)[*:2]].[gGlu].[gGlu]}$PEPTIDE1,PEPTIDE2,5:R3-3:R2$$$V2.0)	9.37	100	7.22	7.00	92	9.28	6.90	6.88	Non-Toxic	Stable	inhibition ([4]; filed as antagonist): 96%; inhibition ([9]; filed as antagonist): 97%; inhibition ([11]; filed as antagonist): 99%; inhibition [22]: Active; inhibition [23]: Active; half-life [24]: 6.73 h; Cmax [25]: 3310 nM; AUC at 48 h [26]: 37.4 µM·h

— ChEMBL document CHEMBL4808176, “Optimization of Truncated Glucagon Peptides to Achieve Selective, High Potency, Full Antagonists” (J Med Chem, 2021)
